Measurements reported in article PMC6768323, “Adverse Maternal, Fetal, and Postnatal Effects of Hexafluoropropylene Oxide Dimer Acid (GenX) from Oral Gestational Exposure in Sprague-Dawley Rats” (Environmental Health Perspectives, 2019).
Where “and” joins values, the source holds several entries; their conditions need not be identical. Equal values may be shown once.

How the values were obtained:
[1] = HFPO-DA concentrations in maternal serum and fetal plasma; format: in vivo, Sprague-Dawley rats
Experimental: Maternal sera from all three blocks and fetal plasma from the third block were analyzed for HFPO-DA concentrations similar to previously reported methods ([McCord et al. 2018]; [Reiner et al. 2009]; [Rushing et al. 2017]). Serum or plasma samples ( 25μL ) were denatured using 0.1M formic acid (FA) followed by a cold ( −20°C ) acetonitrile (ACN) protein crash. The volumes of FA and ACN varied based on the anticipated concentrations of HFPO-DA in the sample ( 0–100 ng HFPO-DA/mL=100μL FA +0.5mL ACN; 100–5,000 ng HFPO-DA/mL=100μL FA +1.0mL ACN; 5,000–200,000 ng HFPO-DA/mL=1.0mL FA added, then 100-μL subsamples removed and crashed with 900μL cold ACN). Samples were vortex mixed after FA and ACN additions then centrifuged at 10,000×g for 5 min and the supernatant removed. Sample extracts were separated using a Waters ACQUITY ultra performance liquid chromatograph (UPLC) (Waters Corporation) fitted with a Waters ACQUITY UPLC BEH C18 column ( 2.1mm×50mm; 1.7μm; 130 Å ). Detection was performed using a Waters Quattro Premier XE tandem quadrupole mass spectrometer in negative ionization mode. A stable isotope of HFPO-DA ( C313 , Wellington Laboratories) was used as an internal standard for quantitation. Separate calibration curves were prepared for the ranges 0–100 ng/mL , 100–5,000 ng/mL , and 5,000–200,000 ng/mL to account for expected concentration differences between control, offspring (fetus/pup), and dam concentrations across the dose range tested.
Serum HFPO-DA concentrations in the mother and the fetus were analyzed as a function of oral dose administered to the mother. We utilized nonlinear regression (exponential one-phase association) to describe the increase and saturation of serum HFPO-DA concentrations across the full oral dose range ( 1–500mg/kg ) for maternal serum. Fetal plasma HFPO-DA concentrations were only analyzed in the low-dose range ( 1–30mg/kg ), which was better described using a linear uptake model. We compared the slopes of the low-dose linear regressions for maternal serum and fetal plasma HFPO-DA concentrations using GraphPad Prism.

Sprague-Dawley rats = details: cited from earlier work
[2] = female rat, oral 10-30 mg/kg; ref Gannon et al. 2016; cited from earlier work

Compound: O=C(O)C(F)(OC(F)(F)C(F)(F)C(F)(F)F)C(F)(F)F (stereo not shown) [HFPO-DA, Hexafluoropropylene oxide dimer acid]
- fetal plasma HFPO-DA slope per 1-mg/kg increase in oral maternal dose ([1]; 1-30 mg/kg, linear regression): 0.12 µg/mL and 0.12 ± 0.0094 µg/mL
- fetal plasma y-intercept ([1]; 1-30 mg/kg, linear regression): 0.17±0.13
- maternal serum HFPO-DA slope per 1-mg/kg increase in oral maternal dose ([1]; 1-30 mg/kg, linear regression): 0.46 µg/mL and 0.46 ± 0.06 µg/mL
- maternal serum y-intercept ([1]; 1-30 mg/kg, linear regression): 0.032±0.80
- plateau of maternal serum HFPO-DA, exponential one-phase association ([1]; 1-500 mg/kg): 112 ± 15 µg/mL
- NOAEL (Sprague-Dawley rats; ref Caverly Rae et al. 2015): 1 mg/kg per day
- upper dose tolerated in the rat (Sprague-Dawley rats; ref Caverly Rae et al. 2015): 500 mg/kg per day
- NOAEL, prenatal developmental toxicity study (Sprague-Dawley rats; ref DuPont 2010): 10 mg/kg per day
- dose overtly toxic to the dam (Sprague-Dawley rats; ref DuPont 2010): 1,000 mg/kg per day
- half-life [2]: ~5 h
